Results from US11117919B2, “Icariside compound, preparation method thereof, and application thereof” (FOSHAN GOLDEN HEALTH TECHNOLOGY CO., LTD., priority 2015, dated 2021).

Experiments:
[1] = system: S180 ascites tumor of mice; test: Inhibition of S180 tumor growth in mice; settings: 60 mg/Kg i.p., 10 days
Experimental: NIH mice used for the tests were about 18-22 grams and divided into 10 mice per group. The liquid (0.2 ml) of S180 ascites tumor of mice was inoculated subcutaneously into the armpit region of mice. The next day after the inoculation, each group of mice were injected intraperitoneally: (1) physiological saline group; (2) solvent control group (DMSO); (3) positive control group [cyclophosphamide 60 mg/(kg·d)]; (4) low-dose group 1: icariside I 2 mg/(kg·d); (5) low-dose group 2: icariside I 5 mg/(kg·d); (6) middle-dose group: icariside I 10 mg/(kg·d); (7) high-dose group: icariside I 20 mg/(kg·d). After administration for 10 continuous days, the administration was stopped and on the next day, the mice were weighed and sacrificed with tumor mass stripped and weighed. The physiological saline group and solvent group were used as a control for calculation of tumor inhibition rate.

[2] = system: human peripheral blood mixed lymphocytes; test: IFN-γ production in mixed lymphocyte culture (MLC) reaction; type: cell-based; settings: final concentration 1000 ng/ml, 120 h
Experimental: Effect of icariside I on promotion of γ-interferon (interferon-gamma, IFN-γ) production by human peripheral blood mixed lymphocytes during culture (an experimental model mimicking enhancing immunity in human body).
(1) Preparation of human peripheral blood mononuclear cells (PBMCs): following the method in Example 5 (2), peripheral blood PBMCs from two normal human were prepared.
Cell concentrations of freshly isolated peripheral blood mononuclear cells (PBMCs) were adjusted to […] with RPMI1640 complete medium. Then, lymphocytes from two healthy human with equal volumes were mixed to maintain a total cell concentration of […]. Different concentrations (in a gradient) of or no icariside I were added thereto (with final concentration of 100 ng/ml, 1000 ng/ml) followed by fully mixing. Then the cells after stimulation were seeded and cultured in a 96-well round-bottom culture plate. The cell concentration per well was maintained at 2×10^5/ml (200 μl/well) and was incubated at 37° C. with 5% CO2 for 120 h in an incubator. The levels of cytokine IFN-γ were detected.
According to the method stated in Example 5 (4), the γ-interferon generated from human peripheral blood mixed lymphocyte culture (MLC) was detected.
Equal cell concentrations of lymphocytes from healthy human were mixed cultured for five days (120 h). The pharmaceutical icariside I was added (in a gradient of different pharmaceutical concentrations) or not added. […] Among them, the human lymphocyte A control is a group of samples containing only one kind of human lymphocyte, while human lymphocyte B control is a group of samples containing two kinds of human lymphocytes, that is, a control group in which two kinds of human lymphocytes were mixed for culture without adding icariside I. The concentrations of icariside I added were 0.1 and 1 μg/ml respectively. *P<0.05; **P<0.01. […]
Cell concentrations of freshly isolated peripheral blood mononuclear cells (PBMCs) were adjusted to 5×10^5/ml with RPMI1640 complete medium. […] The level of cytokine IFN-γ produced was then detected.

[3] = system: human peripheral blood mononuclear cells (PBMCs); test: Immunological screening model: IFN-γ produced in human PBMCs; type: cell-based
Description: The present inventors have long been researching the active components in traditional Chinese herbal medicine and their applications in immunotherapy. The present inventors have established an immunological test model based on determination of the level of IFN-γ produced in human peripheral blood mononuclear cells (PBMCs). By this model, compounds having promotion (or inhibition) effects on human peripheral blood mononuclear cells (PBMCs) to produce γ-interferon can be screened out from chemical components from various sources including traditional Chinese herbal medicine, medicinal plants and so on. Since the γ-Interferon is an important protein (cytokine) in human body's immune system to resist attacks from diseases, its production level in body directly relates to the body's immunity. Therefore, the model is an ideal tool to screen and find functional pharmaceuticals for improving human immunity.
In addition, all the results and achievements of the present invention are based on the very effective screening model established by the present inventors. Therefore, a further objective of the present invention is to provide an experimental model for screening substances having impacts (either enhance or inhibit) on immunity. […] Finally, by using ELISA techniques, the levels of IFN-γ produced in the culture were measured at different incubation time. […]

## O=P1(N(CCCl)CCCl)NCCCO1 (stereo not drawn) [cyclophosphamide, reference compound]
[1]
  change of body weight (g): +4.5 g
  tumor inhibition rate (%) with physiological saline group as control: 42.3%
  tumor inhibition rate (%) with solvent group as control: 55.2%
  weight of tumor (x ± SD, g): 0.6 ± 0.06 g

## COc1ccc(-c2oc3c(CC=C(C)C)c(O[C@@H]4O[C@H](CO)[C@@H](O)[C@H](O)[C@H]4O)cc(O)c3c(=O)c2O[C@@H]2O[C@@H](C)[C@H](O)[C@@H](O)[C@H]2O)cc1 [icariin, reference compound]
[2]
  ability to promote human γ-interferon production in mixed lymphocyte culture: almost no effect

## CC(C)=CCc1c(OC2OC(CO)C(O)C(O)C2O)cc(O)c2c(=O)c(O)c(-c3ccc(O)cc3)oc12 (stereo not drawn) [icariside C]
[3]
  effect in promoting PBMCs to generate IFN-γ: significant effect
